Tested on: algae (Chlamydomonas, Scenedesumus, Actinastrum, Ulothrix, Oscillatoria, Spirogyra, Pleurotaenium, Stichoccus and Chlorella)
Experiment: Hydroponic Culture Test No. 1: algae disks immersed in test nutrient solutions, visual examination of algae growth
Type: cell-based, algae collected from hydroponic culture of tomato plants
Parameters: key: +: Algae growth was clearly observed; −: Algae growth was not observed
Conditions: 7 days, 250° C., continuous light 2500 lux
Experimental: Algae which grew in hydroponic culture of tomato plants inside a greenhouse provided with a hydroponic culture system were collected. A control nutrient solution was prepared by dissolving in 1 liter of water 0.625 g, 0.417 g, 0.042 g and 0.029 g respectively of Otsuka House Nos. 1, 2, 3 and 5 (tradenames of products by Otsuka Chemical Co., Ltd.) Identified in the collected algae were the following nine kinds: Chlamydomonas, Scenedesumus, Actinastrum, Ulothrix, Oscillatoria, Spirogyra, Pleurotaenium, Stichoccus and Chlorella.
The algae thus collected were filtered by using a filtering net with opening diameter of 53 μm. After the filtrate was buried inside the aforementioned control nutrient solution containing agar by 0.8 weight %, disks were cut out therefrom by means of a cork borer. Test nutrient solutions which were individually prepared by adding indoleacetic acid, 3-indole propionic acid or 3-(3-indolyl) butyric acid shown by Formula 1 at different concentrations to the control nutrient solution, and after these disks were immersed individually in these test nutrient solutions for 7 days at […] under a continuous illumination of light at 2500 lux, the growth of algae was visually examined.

Structure (SMILES) | growth of algae (visual) (Concentration 0.1 mg/liter) | growth of algae (visual) (Concentration 0.5 mg/liter) | growth of algae (visual) (Concentration 1 mg/liter) | growth of algae (visual) (Concentration 5 mg/liter) | growth of algae (visual) (Concentration 10 mg/liter) | growth of algae (visual) (Concentration 25 mg/liter) | growth of algae (visual) (Concentration 50 mg/liter)
O=C(O)Cc1c[nH]c2ccccc12 [IAA, indoleacetic acid] | + | + | + | + | + | + | +
CC(CC(=O)O)c1c[nH]c2ccccc12 (stereo not drawn) [IBA, 3-(3-indolyl) butyric acid] | + | + | + | + | − | − | −
O=C(O)CCc1c[nH]c2ccccc12 [IPA, 3-indole propionic acid] | + | + | + | + | + | + | +
